From publication PMC4627091 (2015)

Columns and labels:
[1] = test system: Spinach with GUGA tetraloop (RNA, aptamer) GGGAACACAAUAAUAAAACUUACAAACAAGAAAAAAAAGACGCGACUGAAUGAAAUGGUGAAGGACGGGUCCAGCUGCGUGAGCAGCUUGUUGAGUAGAGUGUGAGCUCCGUAACUAGUCGCGUC; assay: on-chip fluorescence; settings: 125 mM KCl, 5 mM MgCl2; loss of fluorescence attributed to misfolding; up to 43.5 μM DFHBI
[2] = test system: wt Spinach with anchor sequence (in solution) (RNA, aptamer) GGGAACACAAUAAUAAAACUUACAAACAAGAAAAAAAAGACGCGACUGAAUGAAAUGGUGAAGGACGGGUCCAGCUGCUUCGGCAGCUUGUUGAGUAGAGUGUGAGCUCCGUAACUAGUCGCGUC; assay: solution binding assay (off chip); settings: buffer and temperature not stated
[3] = test system: wt Spinach without anchor sequence (in solution) (RNA, aptamer) GACGCGACUGAAUGAAAUGGUGAAGGACGGGUCCAGCUGCUUCGGCAGCUUGUUGAGUAGAGUGUGAGCUCCGUAACUAGUCGCGUC; assay: solution binding assay (off chip); settings: buffer and temperature not stated
[4] = test system: Spinach with GAAA tetraloop (RNA, aptamer) GGGAACACAAUAAUAAAACUUACAAACAAGAAAAAAAAGACGCGACUGAAUGAAAUGGUGAAGGACGGGUCCAGCUGCGAAAGCAGCUUGUUGAGUAGAGUGUGAGCUCCGUAACUAGUCGCGUC; assay: on-chip fluorescence titration and melting; settings: 125 mM KCl, 5 mM MgCl2; 40 mM HEPES, 5% DMSO; comparable to UUCG loop; immobilised RNA
[5] = test system: wt Spinach (87-nt, on chip, with 5' capture tag) (RNA, aptamer) GGGAACACAAUAAUAAAACUUACAAACAAGAAAAAAAAGACGCGACUGAAUGAAAUGGUGAAGGACGGGUCCAGCUGCUUCGGCAGCUUGUUGAGUAGAGUGUGAGCUCCGUAACUAGUCGCGUC; assay: on-chip fluorescence titration (mLSI pull-down); settings: 125 mM KCl, 5 mM MgCl2; 40 mM HEPES, 5% DMSO; temperature of this value not stated (19-28°C series); immobilised RNA
[6] = test system: Spinach U50C (RNA, aptamer) GGGAACACAAUAAUAAAACUUACAAACAAGAAAAAAAAGACGCGACUGAAUGAAAUGGUGAAGGACGGGUCCAGCUGCUUCGGCAGCCUGUUGAGUAGAGUGUGAGCUCCGUAACUAGUCGCGUC; assay: on-chip fluorescence titration (mLSI pull-down); settings: 125 mM KCl, 5 mM MgCl2; 40 mM HEPES, 5% DMSO; temperature of this value not stated; immobilised RNA

In the case of `CC1=N/C(=C\c2cc(F)c(O)c(F)c2)C(=O)N1C`, the binding [1] is reported as “no”, the Kd [2] is reported as 0.68 µM and the Kd [3] is reported as 0.53 µM. The binding [4] was “yes”, the Kd [5] was 1.18 µM and the Kd [6] was 0.45 µM.
